Consider two compounds from ChEMBL document CHEMBL1143961, “Synthesis and antiplatelet activity of ethyl 4-(1-benzyl-1H-indazol-3-yl)benzoate (YD-3) derivatives” (Bioorg Med Chem, 2008).

Some results are limits rather than exact numbers.

Assay [1] has as its target T1, Proteinase-activated receptor 4 (Homo sapiens) (UniProt Q96RI0).
T1 sequence (whole entry): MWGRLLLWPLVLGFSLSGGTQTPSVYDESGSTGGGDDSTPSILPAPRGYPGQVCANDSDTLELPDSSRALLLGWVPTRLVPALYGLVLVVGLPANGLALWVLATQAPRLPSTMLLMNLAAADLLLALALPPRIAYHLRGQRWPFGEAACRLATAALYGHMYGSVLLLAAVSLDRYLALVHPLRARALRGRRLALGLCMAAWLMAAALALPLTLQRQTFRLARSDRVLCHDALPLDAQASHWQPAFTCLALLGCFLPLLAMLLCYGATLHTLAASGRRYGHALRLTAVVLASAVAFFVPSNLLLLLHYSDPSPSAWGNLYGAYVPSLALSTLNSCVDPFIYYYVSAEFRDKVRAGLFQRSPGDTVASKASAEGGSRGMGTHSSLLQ
Description: Inhibition of PAR4-mediated GYPGKF-induced ATP release in human platelet assessed per 3*10^8 platelets at 5 uM.

In assay [2] the target is T1, Proteinase-activated receptor 4 (Homo sapiens). Description: Inhibition of PAR4-mediated GYPGKF-induced P-selectin expression in human platelet at 5 uM.
In assay [3] the test system is Platelet. Description: Inhibition of arachidonic acid-stimulated thromboxane B2 formation in human platelet assessed per 3*10^8 platelets at 5 uM. The format is functional.
The test system of assay [4] is Platelet. The assay can be described thus: Inhibition of arachidonic acid-stimulated thromboxane B2 formation in human platelet at 5 uM. The format is functional.
Assay [5] concerns Platelet. Description: Inhibition of U46619-induced human platelet aggregation. The format is functional, cell-based.
Assay [6] deals with Platelet. The assay can be described thus: Inhibition of collagen-induced human platelet aggregation. The format is functional, cell-based.
Assay [7] has as its system Platelet. Description: Inhibition of thrombin-induced human platelet aggregation. The format is functional, cell-based.
Assay [8] has as its system Platelet. The assay can be described thus: Inhibition of SFLLRN-induced human platelet aggregation. The assay is classed as functional, cell-based.
The test system of assay [9] is Platelet. The assay can be described thus: Inhibition of GYPGKF-induced human platelet aggregation. The assay is classed as functional, cell-based.
Assay [10] has as its target T1, Proteinase-activated receptor 4 (Homo sapiens). Description: Inhibition of PAR4-mediated GYPGKF-induced ATP release in human platelet assessed per 3*10^8 platelets at 1 uM.
Assay [11] shares this target. The assay can be described thus: Inhibition of PAR4-mediated GYPGKF-induced P-selectin expression in human platelet at 1 uM.

As to `CCOC(=O)c1ccc(-c2nn(-c3ccccc3)c3ccccc23)cc1`, the Activity in assay [1] is 1.8 ng; in the assay on Platelet [3] it was 24.4 ng. In [2], this compound had an inhibition of 1.6%. Besides, the inhibition at 5 µM in the assay on Platelet [4] was found to be 98.5%. The IC50 with Platelet [5] is over 10 µM; in the assay on Platelet [6], 4.81 µM; in the assay with Platelet [7], over 10 µM; in the assay on Platelet [8] it was over 10 µM; in the assay with Platelet [9], 2.64 µM.

Turning to `CCOC(=O)c1ccc(-c2nn(Cc3ccccn3)c3ccccc23)cc1`, the Activity is 3.7 ng in assay [10] and 1013.7 ng in the assay on Platelet [3]. In assay [11], this compound returned an inhibition of 1.2%. Besides, the IC50 was over 10 µM in the assay with Platelet [5]; over 10 µM with Platelet [6]; over 10 µM in the assay on Platelet [7]; over 10 µM with Platelet [8]; 0.29 µM with Platelet [9].
